37 molecules from patent US20080039455A1, “PYRAZOLOPYRIMIDINES AND SALTS THEREOF, PHARMACEUTICAL COMPOSITIONS COMPRISING SAME, METHODS OF PREPARING SAME AND USES OF SAME” (priority 2006, published 2008) can be followed below.

This assay deals with T1, human recombinant ALK1 (GST fused to ALK1 intracellular domain [His142-Gln503]) (Homo sapiens, UniProt P37023).
T1 construct: GST fused to ALK1 intracellular domain [His142-Gln503]; made in house
T1 sequence (P37023 142-503): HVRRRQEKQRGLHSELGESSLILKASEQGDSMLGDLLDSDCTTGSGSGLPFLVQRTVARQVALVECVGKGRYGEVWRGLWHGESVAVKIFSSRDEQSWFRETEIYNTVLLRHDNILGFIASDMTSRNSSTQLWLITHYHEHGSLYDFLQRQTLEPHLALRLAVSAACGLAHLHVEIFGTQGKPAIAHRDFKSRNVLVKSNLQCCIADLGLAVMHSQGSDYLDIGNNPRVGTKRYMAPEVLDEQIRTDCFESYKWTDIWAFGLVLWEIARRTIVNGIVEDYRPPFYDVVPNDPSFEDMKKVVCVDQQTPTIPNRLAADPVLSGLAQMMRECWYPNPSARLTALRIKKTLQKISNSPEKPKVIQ
Kind of assay: ALK1-Kinase Flashplate-Assay. It is filed as biochemical. Particulars: 0.5 μM ATP, biotinylated α-casein substrate; read-out: Assay 1 (ALK1-Kinase Flashplate-Assay IC50 class). Put shortly:
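Radiometric Flashplate assay at 20 °C: GST-ALK1 intracellular domain (5 ng/well) with 1 μM biotinylated bovine α-casein, 0.5 μM ATP plus [γ-33P]ATP in Tris pH 8.0, 1 mM MnCl2, 1% or 5% DMSO, 60 min. Normalised to no-inhibitor (0%) and 10 mM EDTA (100%); IC50 by 4-parameter fit.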
With `COc1ccc(-c2cnn3ccc(NCc4ccncc4)nc23)cc1OC` [Example 65, [3-(3,4-Dimethoxy-phenyl)-pyrazolo[1,5-a]pyrimidin-5-yl]-pyridin-4-ylmethyl-amine], the IC50 is under 1 µM. Turning to `OCCNc1ccn2ncc(-c3cccc(OC(F)(F)F)c3)c2n1` [Example 122, 2-[3-(3-Trifluoromethoxy-phenyl)-pyrazolo[1,5-a]pyrimidin-5-ylamino]-ethanol], the IC50 lay in the range of 1 to 10 µM.

Regarding `Cn1cc(-c2cnn3ccc(NCc4cccnc4)nc23)cn1` [Example 230, [3-(1-Methyl-1H-pyrazol-4-yl)-pyrazolo[1,5-a]pyrimidin-5-yl]-pyridin-3-ylmethyl-amine], the concentration for half-maximal inhibition (IC50) was 1 to 10 µM. With `Cc1ccc(S(=O)(=O)Nc2ccc(Nc3ccn4ncc(-c5ccc(C(=O)NCCN(C)C)cc5)c4n3)cc2)cc1` [Example 320, N-(2-Dimethylamino-ethyl)-4-{5-[4-(toluene-4-sulfonylamino)-phenylamino]-pyrazolo[1,5-a]pyrimidin-3-yl}-benzamide] the figure was 1 to 10 µM.

On to `COc1cncc(-c2cnn3ccc(Nc4ccc(C)c(NS(C)(=O)=O)c4)nc23)c1` [Example 107, N-{5-[3-(5-Methoxy-pyridin-3-yl)-pyrazolo[1,5-a]pyrimidin-5-ylamino]-2-methyl-phenyl}-methanesulfonamide], for which the half-inhibitory concentration (IC50) fell in the range of 1 to 10 µM.

As to `c1cc(CNc2ccn3ncc(-c4ccsc4)c3n2)ccn1` [Example 63, Pyridin-4-ylmethyl-(3-thiophen-3-yl-pyrazolo[1,5-a]pyrimidin-5-yl)-amine], the IC50 is under 1 µM. With `NC(=O)c1cccc(-c2cnn3ccc(NCc4cccnc4)nc23)c1` [Example 223, 3-{5-[(Pyridin-3-ylmethyl)-amino]-pyrazolo[1,5-a]pyrimidin-3-yl}-benzamide] the figure was 1 to 10 µM; with `c1ccc(Nc2ccn3ncc(-c4cccs4)c3n2)cc1` [Example 242, Phenyl-(3-thiophen-2-yl-pyrazolo[1,5-a]pyrimidin-5-yl)-amine], 1 to 10 µM; with `NC(=O)c1cccc(-c2cnn3ccc(NCc4ccncc4)nc23)c1` [Example 213, 3-{5-[(Pyridin-4-ylmethyl)-amino]-pyrazolo[1,5-a]pyrimidin-3-yl}-benzamide], 1 to 10 µM.

On to `COc1ccc(-c2cnn3ccc(Nc4ccc(NS(=O)(=O)c5ccc(C)cc5)cc4)nc23)cc1OC` [Example 56, N-{4-[3-(3,4-Dimethoxy-phenyl)-pyrazolo[1,5-a]pyrimidin-5-ylamino]-phenyl}-4-methyl-benzenesulfonamide], for which the IC50 is under 1 µM.

Consider `OCc1cccc(-c2cnn3ccc(NCc4cccnc4)nc23)c1` [Example 170, (3-{5-[(Pyridin-3-ylmethyl)-amino]-pyrazolo[1,5-a]pyrimidin-3-yl}-phenyl)-methanol], for which the IC50 was 1 to 10 µM.

With `CN(C)CCNc1ccn2ncc(-c3ccc(C(=O)O)cc3)c2n1` [Example 136, 4-[5-(2-Dimethylamino-ethylamino)-pyrazolo[1,5-a]pyrimidin-3-yl]-benzoic acid], the 50% inhibitory concentration (IC50) was 1 to 10 µM.

Turning to `COc1ccc(Nc2ccn3ncc(-c4cccc(N)c4)c3n2)cn1` [Example 337, [3-(3-Amino-phenyl)-pyrazolo[1,5-a]pyrimidin-5-yl]-(6-methoxy-pyridin-3-yl)-amine], the IC50 was in the range of 1 to 10 µM. The figure for `CC(=O)c1cccc(-c2cnn3ccc(Nc4ccc(C(C)C)cc4)nc23)c1` [Example 266, 1-{3-[5-(4-Isopropyl-phenylamino)-pyrazolo[1,5-a]pyrimidin-3-yl]-phenyl}-ethanone] is 1 to 10 µM. With `c1cc(CNc2ccn3ncc(-c4cn[nH]c4)c3n2)ccn1` [Example 218, [3-(1H-Pyrazol-4-yl)-pyrazolo[1,5-a]pyrimidin-5-yl]-pyridin-4-ylmethyl-amine] the figure was 1 to 10 µM; with `Oc1cccc(-c2cnn3ccc(NC4CCC(O)CC4)nc23)c1` (stereo not shown) [Example 156, 3-[5-(4-Hydroxy-cyclohexylamino)-pyrazolo[1,5-a]pyrimidin-3-yl]-phenol], under 1 µM; with `COc1ccc(Nc2ccn3ncc(-c4cccc(N(C)C)c4)c3n2)cn1` [Example 332, [3-(3-Dimethylamino-phenyl)-pyrazolo[1,5-a]pyrimidin-5-yl]-(6-methoxy-pyridin-3-yl)-amine], 1 to 10 µM. Turning to `CC(=O)Nc1cccc(-c2cnn3ccc(Nc4ccc(O)cc4)nc23)c1` [Example 50, N-{3-[5-(4-Hydroxy-phenylamino)-pyrazolo[1,5-a]pyrimidin-3-yl]-phenyl}-acetamide], the IC50 is under 1 µM. The figure for `c1ccc(-c2cnn3ccc(NCc4cccnc4)nc23)cc1` [Example 376, (3-Phenyl-pyrazolo[1,5-a]pyrimidin-5-yl)-pyridin-3-ylmethyl-amine] is 1 to 10 µM.

In the case of `c1ccc(Cn2cc(-c3cnn4ccc(NCc5ccncc5)nc34)cn2)cc1` [Example 219, [3-(1-Benzyl-1H-pyrazol-4-yl)-pyrazolo[1,5-a]pyrimidin-5-yl]-pyridin-4-ylmethyl-amine], the half-inhibitory concentration (IC50) fell in the range of 1 to 10 µM. With `COc1cc(-c2cnn3ccc(Nc4ccc(C)c(NS(C)(=O)=O)c4)nc23)ccc1O` [Example 151] the figure was under 1 µM; with `COc1cc(-c2cnn3ccc(NC4CCC(O)CC4)nc23)cc(OC)c1OC` (stereo not shown) [Example 474, 4-[3-(3,4,5-Trimethoxy-phenyl)-pyrazolo[1,5-a]pyrimidin-5-ylamino]-cyclohexanol], under 1 µM; with `COc1ccc(Nc2ccn3ncc(-c4cc(OC)c(OC)c(OC)c4)c3n2)cn1` [Example 90, (6-Methoxy-pyridin-3-yl)-[3-(3,4,5-trimethoxy-phenyl)-pyrazolo[1,5-a]pyrimidin-5-yl]-amine], under 1 µM.

On to `COc1cc(-c2cnn3ccc(Nc4ccc(C(C)C)cc4)nc23)cc(OC)c1OC` [Example 97, (4-Isopropyl-phenyl)-[3-(3,4,5-trimethoxy-phenyl)-pyrazolo[1,5-a]pyrimidin-5-yl]-amine], for which the IC50 was under 1 µM. With `Oc1ccc(-c2cnn3ccc(Nc4ccc(N5CCOCC5)cc4)nc23)cc1` [Example 28, 4-[5-(4-Morpholin-4-yl-phenylamino)-pyrazolo[1,5-a]pyrimidin-3-yl]-phenol], the IC50 fell in the range of 1 to 10 µM. The figure for `COc1cc(-c2cnn3ccc(NCCN(C)C)nc23)cc(OC)c1OC` [Example 134, N,N-Dimethyl-N-[3-(3,4,5-trimethoxy-phenyl)-pyrazolo[1,5-a]pyrimidin-5-yl]-ethane-1,2-diamine] is 1 to 10 µM; for `OC1CCC(Nc2ccn3ncc(-c4cccnc4)c3n2)CC1` (stereo not shown) [Example 67, 4-(3-Pyridin-3-yl-pyrazolo[1,5-a]pyrimidin-5-ylamino)-cyclohexanol] it is 1 to 10 µM; for `COc1ccc(-c2cnn3ccc(NCc4ccncc4)nc23)cc1` [Example 154, [3-(4-Methoxy-phenyl)-pyrazolo[1,5-a]pyrimidin-5-yl]-pyridin-4-ylmethyl-amine] it is 1 to 10 µM. On to `COc1cc(-c2cnn3ccc(Nc4ccc(F)c(Cl)c4)nc23)cc(OC)c1OC` [Example 259, (3-Chloro-4-fluoro-phenyl)-[3-(3,4,5-trimethoxy-phenyl)-pyrazolo[1,5-a]pyrimidin-5-yl]-amine], for which the IC50 fell in the range of 1 to 10 µM.

Take `O=C(NCCO)c1cccc(-c2cnn3ccc(Nc4ccc(N5CCOCC5)cc4)nc23)c1` [Example 130, N-(2-Hydroxy-ethyl)-3-[5-(4-morpholin-4-yl-phenylamino)-pyrazolo[1,5-a]pyrimidin-3-yl]-benzamide]: the concentration for half-maximal inhibition (IC50) lay in the range of 1 to 10 µM.

As to `COc1cc(-c2cnn3ccc(NCc4ccncc4)nc23)cc(OC)c1OC` [Example 418, Pyridin-4-ylmethyl-[3-(3,4,5-trimethoxy-phenyl)-pyrazolo[1,5-a]pyrimidin-5-yl]-amine], the concentration for half-maximal inhibition (IC50) is under 1 µM.

`COc1cccc(-c2cnn3ccc(Nc4cc(OC)c(OC)c(OC)c4)nc23)c1` [Example 178, [3-(3-Methoxy-phenyl)-pyrazolo[1,5-a]pyrimidin-5-yl]-(3,4,5-trimethoxy-phenyl)-amine]: the 50% inhibitory concentration (IC50) lay in the range of 1 to 10 µM. With `CN(C)CCNC(=O)c1cccc(-c2cnn3ccc(Nc4ccc(O)cc4)nc23)c1` [Example 326, N-(2-Dimethylamino-ethyl)-3-[5-(4-hydroxy-phenylamino)-pyrazolo[1,5-a]pyrimidin-3-yl]-benzamide] the figure was 1 to 10 µM; with `Fc1ccccc1-c1cnn2ccc(NCc3cccnc3)nc12` [Example 408, [3-(2-Fluoro-phenyl)-pyrazolo[1,5-a]pyrimidin-5-yl]-pyridin-3-ylmethyl-amine], 1 to 10 µM; with `CC(C)c1ccc(Nc2ccn3ncc(-c4ccncc4)c3n2)cc1` [Example 36, (4-Isopropyl-phenyl)-(3-pyridin-4-yl-pyrazolo[1,5-a]pyrimidin-5-yl)-amine], 1 to 10 µM.

Consider `COc1cc(-c2cnn3ccc(NCc4cccnc4)nc23)cc(OC)c1OC` [Example 126, Pyridin-3-ylmethyl-[3-(3,4,5-trimethoxy-phenyl)-pyrazolo[1,5-a]pyrimidin-5-yl]-amine], for which the 50% inhibitory concentration (IC50) fell in the range of 1 to 10 µM.

Take `Oc1cccc(-c2cnn3ccc(Nc4ccccc4)nc23)c1` [Example 271, 3-(5-Phenylamino-pyrazolo[1,5-a]pyrimidin-3-yl)-phenol]: the IC50 is 1 to 10 µM.
